Source: PubChem BioAssay (NCI)
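Where inhibition never reached the appropriate level, the endpoint shown equals the highest concentration tested. Otherwise, values were interpolated linearly from a five-concentration, 48-hour dose response in 96-well plates. TGI is the concentration that stops growth completely.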

What was measured:
Assay in all cases: DTP human tumour cell line panel, 48 h
[1] = tested on: OVCAR-8 ovarian
[2] = tested on: SNB-78 CNS
[3] = tested on: 786-0 renal
[4] = tested on: SNB-19 CNS
[5] = tested on: CAKI-1 renal
[6] = tested on: RXF-631 renal
[7] = tested on: SF-295 CNS
[8] = tested on: IGROV1 ovarian
[9] = tested on: CCRF-CEM leukemia
[10] = tested on: DMS 273 small cell lung
[11] = tested on: COLO 205 colon
[12] = tested on: NCI-H23 lung
[13] = tested on: OVCAR-4 ovarian
[14] = tested on: DMS 114 small cell lung
[15] = tested on: UACC-257 melanoma
[16] = tested on: SK-MEL-5 melanoma
[17] = tested on: U251 CNS
[18] = tested on: KM12 colon
[19] = tested on: XF 498 CNS
[20] = tested on: NCI-H226 lung
[21] = tested on: UACC-62 melanoma
[22] = tested on: HT29 colon
[23] = tested on: SK-MEL-2 melanoma
[24] = tested on: SNB-75 CNS
[25] = tested on: NCI-H460 lung
[26] = tested on: OVCAR-3 ovarian
[27] = tested on: OVCAR-5 ovarian
[28] = tested on: RPMI-8226 leukemia
[29] = tested on: HCC-2998 colon
[30] = tested on: HCT-15 colon
[31] = tested on: HL-60(TB) leukemia
[32] = tested on: SN12C renal
[33] = tested on: ACHN renal
[34] = tested on: UO-31 renal
[35] = tested on: DLD-1 colon
[36] = tested on: SK-MEL-28 melanoma
[37] = tested on: SF-539 CNS
[38] = tested on: A549 NSCLC
[39] = tested on: M14 melanoma
[40] = tested on: EKVX NSCLC
[41] = tested on: HOP-62 NSCLC
[42] = tested on: A498 renal
[43] = tested on: TK-10 renal
[44] = tested on: SW-620 colon
[45] = tested on: MALME-3M melanoma
[46] = tested on: SF-268 CNS
[47] = tested on: LXFL 529 NSCLC
[48] = tested on: SK-OV-3 ovarian
[49] = tested on: MOLT-4 leukemia
[50] = tested on: HOP-18 NSCLC
[51] = tested on: HOP-92 NSCLC
[52] = tested on: RXF 393 renal
[53] = tested on: KM20L2 colon
[54] = tested on: LOX IMVI melanoma
[55] = tested on: NCI-H522 lung
[56] = tested on: K-562 leukemia
[57] = tested on: M19-MEL melanoma
[58] = tested on: MDA-MB-231 breast
[59] = tested on: SR leukemia
[60] = tested on: MCF7 breast
[61] = tested on: DU-145 prostate
[62] = tested on: HS 578T breast
[63] = tested on: MDA-N
[64] = tested on: MDA-MB-435
[65] = tested on: NCI/ADR-RES ovarian
[66] = tested on: PC-3 prostate
[67] = tested on: HCT-116 colon

Measured: TGI

COc1ccc(/C(Cl)=C(\C=O)c2ccc([N+](=O)[O-])cc2)cc1
56.2 µM: [34]
> 100 µM: [25] | [27] | [50]
63.1 µM: [35]
> 37.5 µM: [56]
> 73.6 µM: [43]
7.24 µM: [49]
32.2 µM: [37]
50.1 µM: [2]
31.6 µM: [3]
38.3 µM: [1]
> 27.6 µM: [47]
34.6 µM: [7]
41.8 µM: [53]
11.4 µM: [18]
8 µM: [28]
29.9 µM: [22]
23.2 µM: [9]
30.9 µM: [24]
31.2 µM: [51]
> 68.8 µM: [40]
40.4 µM: [11] | [19]
> 31.6 µM: [4]
58.7 µM: [10]
> 49.1 µM: [44]
10.7 µM: [31]
33.8 µM: [5]
74.1 µM: [42]
50.6 µM: [12]
62.6 µM: [29]
70.5 µM: [33]
19.4 µM: [17]
46.9 µM: [20]
66.6 µM: [38]
> 46.8 µM: [55]
53.4 µM: [26]
49.1 µM: [32]
38.6 µM: [52]
> 70.3 µM: [30]
41.3 µM: [23]
76.7 µM: [48]
52.8 µM: [41]
92.3 µM: [46]
57.3 µM: [13]
68.3 µM: [6]
64.9 µM: [15]
> 74.6 µM: [39]
68.5 µM: [14]
> 48.1 µM: [54]
68.1 µM: [45]
53.3 µM: [8]
33.1 µM: [21]
39.9 µM: [16]
> 93.8 µM: [36]

CN(C)C(c1ccccc1)C(O)c1ccccc1 (configuration not stated)
not listed: [1] | [13] | [16] | [27] | [51] | [58] | [59] | [60] | [61] | [62] | [63] | [64] | [65] | [66] | [67]
> 100 µM: all other assays above

c1cc2c(ncc3cscc32)s1
> 31.6 µM: [8] | [21] | [67]
not listed: [48] | [50] | [53]
> 100 µM: all other assays above
